For one data set, the target named is T1, A1 receptor (Rattus norvegicus, UniProt P25099).
T1 construct: Whole brain minus cerebellum and brainstem from male Long Evans rats; from tissue; host or cells: rat whole brain minus cerebellum and brainstem (membranes)
T1 sequence (P25099 1-326): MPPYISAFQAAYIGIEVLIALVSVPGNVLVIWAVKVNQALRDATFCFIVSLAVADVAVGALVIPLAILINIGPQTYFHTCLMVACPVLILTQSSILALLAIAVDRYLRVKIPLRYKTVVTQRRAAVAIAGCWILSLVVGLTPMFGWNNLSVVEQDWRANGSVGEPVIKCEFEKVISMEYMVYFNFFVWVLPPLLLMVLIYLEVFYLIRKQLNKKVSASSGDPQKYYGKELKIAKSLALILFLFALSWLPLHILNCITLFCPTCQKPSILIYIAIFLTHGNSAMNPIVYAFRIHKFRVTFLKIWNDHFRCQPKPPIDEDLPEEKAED
The experiment in a line: Adenosine Receptor Binding - A1 Receptor Affinity (RBA1), [3H]-CHA displacement. The following applies: 1.0 nM [3H]-CHA, rat brain membranes, pH 7.7, 25° C., 1 h; read-out: RBA-1 IC50 (adenosine A1 receptor affinity). The procedure: The supernatant was discarded, and the pellet was resuspended and centrifuged as before. […] Incubation volume was 2 ml. […] The radio-labeled ligand retained on the filter was measured by liquid scintillation spectrophotometry after shaking the filters for one hour or longer on a mechanical shaker in 10 ml of Beckman Ready-Solv HP scintillation cocktail. […] The maximal number of binding sites (Bmax) was calculated from the Scatchard plot.

The target of another data set is T2, A2 receptor (Rattus norvegicus, UniProt P30543).
T2 construct: 5 mg original tissue weight of rat weight of rat striatal membranes; tissue Pel-Freez (Rogers, Ark.); host or cells: rat striatum (membranes)
T2 sequence (P30543 whole entry): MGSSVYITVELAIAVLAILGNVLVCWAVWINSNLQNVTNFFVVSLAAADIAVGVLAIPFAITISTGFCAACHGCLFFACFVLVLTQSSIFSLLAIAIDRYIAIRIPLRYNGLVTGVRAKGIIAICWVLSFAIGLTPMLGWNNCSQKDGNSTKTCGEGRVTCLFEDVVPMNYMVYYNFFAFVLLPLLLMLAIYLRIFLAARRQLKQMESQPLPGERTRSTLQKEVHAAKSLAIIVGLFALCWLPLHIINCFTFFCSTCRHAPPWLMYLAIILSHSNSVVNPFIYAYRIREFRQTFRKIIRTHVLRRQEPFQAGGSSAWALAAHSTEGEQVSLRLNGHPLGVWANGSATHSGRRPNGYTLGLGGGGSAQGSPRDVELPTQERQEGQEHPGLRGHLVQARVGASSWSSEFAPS
The experiment in a line: Adenosine Receptor Binding - A2 Receptor Affinity (RBA2), [3H]NECA displacement. The following applies: 4 nM [3H]NECA, 50 nM N6-cyclopentyladenosine, rat striatal membranes, 25° C., 60 min; read-out: RBA-2 IC50 (adenosine A2 receptor affinity). The protocol:
Adenosine Receptor Binding--A2 Receptor Affinity (RBA2)
Brains from 200-500 g mixed sex Sprague-Dawley rats were purchased from Pel-Freez (Rogers, Ark.). […] Brains were thawed and then kept on ice while the striata were dissected out. […] The suspension was centrifuged at 50,000 xg for ten minutes, the supernatant discarded, the pellet resuspended in 10 vol ice-cold Tris as above, recentrifuged, resuspended at 1 g/5 ml, and stored in plastic vials at -70° C. […] When needed, tissue was thawed at room temperature, disrupted in a Polytron, and kept on ice until used. […]
Nonspecific binding was defined as binding in the presence of 100 μM N^6 -cyclopentyladenosine, and specific binding was defined as total binding minus nonspecific binding. The IC50 was calculated by weighted nonlinear least squares curve-fitting to the mass-action equation. […]
Weighting factors were calculated under the assumption that the standard deviation was proportional to the predicted value of Y. Nonspecific binding was treated as a very large (infinite) concentration of drug in the computer analysis.

Data set [1] can be described thus: Mouse Activity and Screen Test Procedure (MAST): inhibition of spontaneous locomotion. Type of data set: in vivo, mouse (male Swiss-Webster). The following applies: one hour prior to testing, accumulated over one hour. The protocol:
(§1) Nine unfasted Swiss-Webster male mice weighing 20-30 g are equally divided into three groups for each drug dose to be tested. That is, data for each dose level was generated by three separate groups of three mice each.
(§2) A minimum of three dose levels (10, 30, and 100 mg/kg) are tested for each drug. Treatments are administered intraperitoneally one hour prior to testing. All dosages are calculated as parent compound and given in volumes of 10 ml/kg. Compounds are dissolved or suspended in 0.2% Methocel. Control animals are injected with Methocel.
A two part testing procedure is started one hour postinjection. […] Briefly this test consists of placing mice on individual wire screens which are then rotated 180 degrees at the start of a 60 second observation period. The number of mice falling off the inverted screen is recorded.
The actophotometer consists of a cylindrical chamber whose center is occupied by another cylinder which contains the illumination for six photocells located on the perimeter of the chamber. Six light-beam interruptions equal one count. Locomotor activity is recorded by computer at ten minute intervals for 60 minutes.
The data obtained from the screen test are expressed as percent of mice falling off the screen. Data derived from locomotor activity of drug treated mice are compared to the activity of vehicle treated animals and are expressed as percent inhibition of spontaneous locomotion. All percentages reported for inhibition of locomotion (LI) are based upon data accumulated for one hour. […] An overall dose rating is obtained by the following criteria:
LAD refers to the lowest dose at which an A rating is achieved. […] The compounds are identified in the examples.

The next data set relates to mice. The experiment in a line: Mouse Activity and Screen Test Procedure (MAST): screen test failure. It is filed as in vivo, mouse (male Swiss-Webster). The settings on record: one hour postinjection.
Description: The compounds of the invention are new chemical substances which are useful as pharmaceutical agents for the treatment of psychoses. The antipsychotic activity of representative compounds of the invention was established by the Mouse Activity and Screen Test Procedure (MAST) described below.
as §1, §2
A two part testing procedure is started one hour postinjection. First, the screen test (ST) is performed (see Pharmac. Biochem. Behav. 6, 351-353, 1977). Briefly this test consists of placing mice on individual wire screens which are then rotated 180 degrees at the start of a 60 second observation period. The number of mice falling off the inverted screen is recorded.
The data obtained from the screen test are expressed as percent of mice falling off the screen. Data derived from locomotor activity of drug treated mice are compared to the activity of vehicle treated animals and are expressed as percent inhibition of spontaneous locomotion. All percentages reported for inhibition of locomotion (LI) are based upon data accumulated for one hour. Both phases of testing are graded: A=60-100%; C=31-59%; and N=0-30%. An overall dose rating is obtained by the following criteria: […]

The nature of data set [2]: Antihypertensive evaluation (AHP3): direct monitoring of aortic blood pressure and heart rate in conscious rats. It is filed as in vivo. The following applies: 10 mg/kg, conscious rat. The procedure: This test procedure is described in the following paragraphs.
The continuous monitoring of pulsatile blood pressure (BP) from unrestrained conscious rats surgically equipped with polyethylene cannulas was accomplished by means of a computer assisted data capture scheme (CADCS). The basic elements of the methodology are the cannulation procedure and the CADCS.
Cannulation Procedure: Rats were anesthetized with Telazol (1:1 tiletamine HCl and zolazepam HCl); 20-40 mg/kg IM and the descending aorta exposed via a midline incision. Cannulas fabricated from polyethylene tubing were inserted into the aorta via an undersized puncture hole below the renal arteries. The puncture hole was made by a 23 G disposable needle with a section of the aorta clamped off above and below the puncture site. The cannulas, consisting of a PE100 (0.86 mm ID) body and a PE50 (0.58 mm ID) tip, were attached to a trocar, inserted through the psoas muscle, and passed subcutaneously along the midline of the back and externalized between the ears. The cannulas were anchored to the psoas muscle and between the scalulae (3-0 green braided suture). The midline incision was closed in two steps (muscle first, skin second) using continuous over-and over sutures (4-0 chronic). Each rat was then given penicillin 30,000 units subcutaneously (Penicillin G Procaine Sterile Suspension).
The rats were fitted with a harness-spring-swivel assembly designed to protect the cannula and to provide the rat relative freedom of movement. The harnesses were fabricated from nylon hook and loop tape cemented to a metal plate to which spring wires (18-8 stainless steel), were attached to brass swivels. […] While on test, each rat received a continuous slow infusion of heparinized saline solution (approximately […] or 40 units of heparin per 24 hour period) to prevent clot formation. Additional "flushes" of the cannula with heparinized saline were carried out when the aortic pulse pressure (systolic minus diastolic) was less than 25 mm Hg.
CADCS: The pulsatile blood pressure and heart rate of each of 32 rats was monitored every minute by means of two in-laboratory microcomputers communicating directly with a data concentrator computer. The data were first stored on the data concentrator disk and then transferred to a magnetic tape for analysis and report generation by the main research computer. The overall scheme involved modulating the primary signal from the pressure transducer, generating the primary data set of the one-minute values for systolic, diastolic, and mean blood pressures and heart rate by the in-lab microcomputer and the storage, analysis, and report generation by the main reserach computer.
The transducers were connected to analog signal conditioning modules. The modules provided a regulated excitation voltage for the transducers, amplification as required to interface the microprocessors and an active low pass filter to compensate for the pressure wave form distortion produced by the flexible, fluid filled, narrow cannula.
The microcomputers (one for each of two groups of 16 rats) were connected to the input components through the module interface units, an analog-to-digital converter for the pressure wave form signal and the digital inputs for the dose and event marker switches. The microcomputer controlled the sequential acquisition of data from the modular interface units through an internal synchronous time-of-day clock/time base generator. Utilizing the time base generator as a reference, the blood pressure values and the marker switch status for each of the 32 stations were sampled every ten msec. The microcomputer processed each blood pressure sample as it was received to produce "running average" values for heart rate, and mean, systolic and diastolic blood pressures.

As for `OC[C@H]1O[C@@H](n2cnc3c(NCCC4c5ccccc5-c5ccccc54)ncnc32)[C@H](O)[C@@H]1O` [Example 3, N^6 -Fluorenylethyl adenosine], at A1 receptor, the half-inhibitory concentration (IC50) (as a rule, the concentration that gives 50% inhibition) is 0.435 µM.

Regarding `OC[C@H]1O[C@@H](n2cnc3c(NC4c5ccccc5-c5ccccc54)ncnc32)[C@H](O)[C@@H]1O` [Example 1], the half-maximal inhibitory concentration (IC50) was 8.6 µM at A1 receptor and 51 µM at A2 receptor. For the same compound, the “Inhibition of Mouse Locomotion Activity” value in data set [1] (10 mg/kg i.p.) turned out to be 41%; in data set [1] (30 mg/kg i.p.) it was 60%; in data set [1] (100 mg/kg i.p.) it was 68%. Also, the “Screen Test Failure (percent of mice falling off the screen)” value in the data set on mice (10 mg/kg i.p.), with mice (30 mg/kg i.p.) and with mice (100 mg/kg i.p.) was 0% each time.

For `OC[C@H]1O[C@@H](n2cnc3c(NCC4c5ccccc5-c5ccccc54)ncnc32)[C@H](O)[C@@H]1O` [Example 2], the “Inhibition of Mouse Locomotion Activity” value in data set [1] (1 mg/kg i.p.) is given as 56%; in data set [1] (3 mg/kg i.p.), 94%; in data set [1] (10 mg/kg i.p.), 97%; in data set [1] (30 mg/kg i.p.) it was 97%; in data set [1] (100 mg/kg i.p.), 91%. In addition, the “Screen Test Failure (percent of mice falling off the screen)” value with mice (1 mg/kg i.p.) came out at 11%; in the data set on mice (3 mg/kg i.p.), 33%; in the data set on mice (10 mg/kg i.p.) it was 44%; in the data set with mice (30 mg/kg i.p.), 55%; in the data set with mice (100 mg/kg i.p.), 55%. Also, the “HR ↑ (increase in heart rate)” value in data set [2] (1 hour) worked out at 24%; in data set [2] (3 hours), 27%; in data set [2] (5 hours), 20%; in data set [2] (7 hours), 13%; in data set [2] (9 hours), 13%. Moreover, the “MAP ↓ (decrease in mean arterial blood pressure)” value was 32% in data set [2] (1 hour); 32% in data set [2] (3 hours); 34% in data set [2] (5 hours); 28% in data set [2] (7 hours); 30% in data set [2] (9 hours).

These data come from patent US4593019A, “N^6 -tricyclic adenosines” (Warner-Lambert Company, priority 1984, dated 1986).
